Experimental data taken from article PMC3183052, “Immunoprotectivity of HLA-A2 CTL Peptides Derived from Respiratory Syncytial Virus Fusion Protein in HLA-A2 Transgenic Mouse” (PLoS ONE, 2011).

What was measured:
[1] = system: splenocytes from HLA-A*0201 transgenic C57BL/6 mice; assay: IFN-γ ELISPOT of splenocytes restimulated with peptide; type: cell-based, mouse
How it was run: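 HLA-A*0201 transgenic C57BL/6 mice primed and boosted intranasally 20 days apart with 1×10^7 pfu rAd-F0 or 1×10^4 live RSV B1; splenocytes taken 10 days post-boost. Splenocytes restimulated 48 h at 37°C with 2 µg individual RSV F 9-mer peptides; spots counted, expressed per 5×10^5 splenocytes.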

CD8+ T lymphocytes = assay: IFN-γ intracellular staining of CD8+ splenocytes; type: cell-based, mouse; settings: splenocytes of peptide-immunized mice stimulated with 10 µg/mL peptide for five hours; flow cytometry
Method: For IFN-γ intracellular staining, splenocytes from peptide- or vehicle-immunized mice were stimulated in vitro with the respective peptides (peptide 3, 13, 14, and 23) (10 µg/mL) for five hours, washed with 1× PBS, and stained with anti-CD8 antibody conjugated with fluorescein isothiocyanate (FITC) (BD Biosciences) for 30 minutes, followed by subsequent fixation and permeabilization following the instructions of eBioscience fixation and permeabilization kit. The splenocytes were further stained for intracellular IFN-γ using PE-conjugated anti-IFN-γ antibody (BD Biosciences) for another 30 minutes. After washing, the samples were analyzed using flow cytometry.
Figure 2 Epitope-specific CD4^+ and CD8^+ T-cell activation in peptide-immunized HLA-A*0201 transgenic mice. Splenocytes were isolated on day 17 from mice immunized twice subcutaneously with the peptides 3, 13, 14, 17, 23, or vehicle at day 0 and day 10. The splenocytes were labeled with CFSE and cultured in the presence or absence of 10 µg/mL of the respective peptides for 8 days. Proliferation of CD4^+ (A) or CD8^+ (B) lymphocytes in response to the different CD8 epitopes was analyzed by flow cytometry using anti-CD4 or CD8 antibodies conjugated with PE-Cy5. Results are presented as cell division index (CDI) as described in the Materials and Methods. […]

Sequence: YMLTNSELL [peptide 14, HLA-A*0201-restricted 9-mer synthetic peptide from F protein of RSV-B1 strain]
- IFN-γ ELISPOT, RSV ([1]; splenocytes of HLA-Tg B6 mice primed and boosted i.n. with 10^4 pfu RSV-B1, restimulated with 2 µg peptide, representative of two experiments, five mice per group): 97 cytokine-secreting cells per 5×10^5 splenocytes
- IFN-γ ELISPOT, rAd-F0 ([1]; splenocytes of HLA-Tg B6 mice primed and boosted i.n. with 10^7 pfu rAd-F0, restimulated with 2 µg peptide, representative of two experiments, five mice per group): 200 cytokine-secreting cells per 5×10^5 splenocytes
- IFN-γ level in restimulated splenocytes (ELISPOT, text grading) ([1]; splenocytes of rAd-F0- or RSV B1-primed and boosted HLA-Tg B6 mice, high = over 100 spots, moderate = over 50 spots): over 100 spots
- proportion of IFN-γ+/CD8+ T lymphocytes (CD8+ T lymphocytes): marginally increased
